Assays:
Adenosine A2A = biological target: T1, Adenosine A2A (Homo sapiens, UniProt P29274); assay: radioligand binding (Table S2); settings: [3H] CGS 21680, Human recombinant HEK-293 cells
T1 construct: host or cells: HEK-293 cells

Dopamine D1 = biological target: T2, Dopamine D1 (Homo sapiens, UniProt P21728); assay: radioligand binding (Table S2); settings: [3H] SCH 23390, Human recombinant CHO cells
T2 construct: host or cells: CHO cells

Endothelin ETA = biological target: T3, Endothelin ETA (Homo sapiens, UniProt P25101); assay: radioligand binding (Table S2); settings: [125I] Endothelin-1, Human recombinant CHO cells
T3 construct: host or cells: CHO cells
T3 sequence (P25101 21-427): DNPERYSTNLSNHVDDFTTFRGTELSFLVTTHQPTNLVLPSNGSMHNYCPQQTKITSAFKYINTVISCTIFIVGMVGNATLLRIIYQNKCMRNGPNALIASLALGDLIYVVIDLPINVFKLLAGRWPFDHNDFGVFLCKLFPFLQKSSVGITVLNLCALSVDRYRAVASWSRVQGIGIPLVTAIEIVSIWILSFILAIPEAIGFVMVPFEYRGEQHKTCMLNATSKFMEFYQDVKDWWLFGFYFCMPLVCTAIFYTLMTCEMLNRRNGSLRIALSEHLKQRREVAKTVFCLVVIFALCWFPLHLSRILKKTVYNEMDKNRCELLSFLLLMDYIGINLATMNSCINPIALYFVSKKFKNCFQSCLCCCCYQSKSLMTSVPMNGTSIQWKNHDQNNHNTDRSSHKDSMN

Melatonin MT2 (ML1B) = biological target: T4, Melatonin MT2 (ML1B) (Homo sapiens, UniProt P49286); assay: radioligand binding (Table S2); settings: [125I] 2-iodomelatonin, Human recombinant CHO cells
T4 construct: host or cells: CHO cells
T4 sequence (P49286 whole entry): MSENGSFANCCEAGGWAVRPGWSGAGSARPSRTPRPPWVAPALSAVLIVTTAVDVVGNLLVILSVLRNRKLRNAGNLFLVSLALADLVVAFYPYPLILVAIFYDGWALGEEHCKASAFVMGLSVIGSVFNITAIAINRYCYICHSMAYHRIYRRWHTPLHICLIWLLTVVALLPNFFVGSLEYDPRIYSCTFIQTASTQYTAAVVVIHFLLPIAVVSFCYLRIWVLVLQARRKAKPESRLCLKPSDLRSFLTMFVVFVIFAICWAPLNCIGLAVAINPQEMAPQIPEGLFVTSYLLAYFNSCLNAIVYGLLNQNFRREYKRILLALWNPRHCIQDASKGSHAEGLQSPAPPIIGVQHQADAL

[1] = biological target: T5, Nicotinic N neuronal α4β2 (Homo sapiens, UniProt P17787+P43681); assay: radioligand binding (Table S2); settings: [3H] Cytisine, Human recombinant SH-SY5Y cells
T5 construct: host or cells: SH-SY5Y cells
T5 sequence (P43681 29-627 limits assumed): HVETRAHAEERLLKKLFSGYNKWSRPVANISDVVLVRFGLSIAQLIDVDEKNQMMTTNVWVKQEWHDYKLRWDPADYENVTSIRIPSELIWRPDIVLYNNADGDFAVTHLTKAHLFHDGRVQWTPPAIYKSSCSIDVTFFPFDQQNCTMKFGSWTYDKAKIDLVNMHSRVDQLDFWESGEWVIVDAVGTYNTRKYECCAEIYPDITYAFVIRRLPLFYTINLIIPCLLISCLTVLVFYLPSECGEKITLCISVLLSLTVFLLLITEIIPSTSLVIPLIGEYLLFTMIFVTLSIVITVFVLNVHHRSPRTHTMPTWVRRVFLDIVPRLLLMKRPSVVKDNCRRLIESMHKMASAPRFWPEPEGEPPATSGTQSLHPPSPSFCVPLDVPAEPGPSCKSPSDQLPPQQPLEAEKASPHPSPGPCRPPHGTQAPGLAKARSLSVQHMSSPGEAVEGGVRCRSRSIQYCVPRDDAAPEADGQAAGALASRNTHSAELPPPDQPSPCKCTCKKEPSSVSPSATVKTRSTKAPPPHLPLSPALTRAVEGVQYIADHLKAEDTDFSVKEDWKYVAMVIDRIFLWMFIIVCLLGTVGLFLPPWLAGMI
T5 sequence (P17787 26-502): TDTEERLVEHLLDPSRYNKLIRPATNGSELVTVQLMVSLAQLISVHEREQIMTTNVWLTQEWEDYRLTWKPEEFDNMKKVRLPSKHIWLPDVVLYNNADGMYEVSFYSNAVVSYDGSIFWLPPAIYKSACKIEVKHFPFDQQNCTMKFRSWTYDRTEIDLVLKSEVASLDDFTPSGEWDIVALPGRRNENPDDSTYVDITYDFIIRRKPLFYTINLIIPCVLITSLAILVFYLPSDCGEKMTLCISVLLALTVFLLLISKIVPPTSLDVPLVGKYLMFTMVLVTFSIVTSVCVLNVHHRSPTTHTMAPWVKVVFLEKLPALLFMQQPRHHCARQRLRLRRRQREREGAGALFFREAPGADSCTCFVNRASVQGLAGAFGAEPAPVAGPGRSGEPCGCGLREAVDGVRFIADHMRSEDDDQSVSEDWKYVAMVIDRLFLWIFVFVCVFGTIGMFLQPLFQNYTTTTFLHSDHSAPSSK

[2] = biological target: T6, Vasoactive intestinal peptide VPAC1 (VIP1) (Homo sapiens, UniProt P32241); assay: radioligand binding (Table S2); settings: [125I] VIP, Human recombinant CHO cells
T6 construct: host or cells: CHO cells
T6 sequence (P32241 31-457): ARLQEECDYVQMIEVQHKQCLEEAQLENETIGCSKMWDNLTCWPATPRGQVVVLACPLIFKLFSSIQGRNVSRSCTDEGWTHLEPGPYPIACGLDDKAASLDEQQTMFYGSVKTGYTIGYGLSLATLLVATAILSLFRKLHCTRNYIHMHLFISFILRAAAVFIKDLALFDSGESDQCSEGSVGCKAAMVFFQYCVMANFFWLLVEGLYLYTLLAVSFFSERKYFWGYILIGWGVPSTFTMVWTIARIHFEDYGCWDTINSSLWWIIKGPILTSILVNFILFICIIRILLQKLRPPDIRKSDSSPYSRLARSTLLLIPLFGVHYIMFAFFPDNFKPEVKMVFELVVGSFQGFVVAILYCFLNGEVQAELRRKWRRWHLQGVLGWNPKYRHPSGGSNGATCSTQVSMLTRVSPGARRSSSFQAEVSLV

C5a = biological target: T7, C5a (Homo sapiens, UniProt P21730); assay: functional assay, cAMP HTRF, HEK-293 cells (Table S2); assay type: cell-based
T7 construct: expressed in transfected cells; host or cells: HEK-293 cells
T7 sequence (P21730 whole entry): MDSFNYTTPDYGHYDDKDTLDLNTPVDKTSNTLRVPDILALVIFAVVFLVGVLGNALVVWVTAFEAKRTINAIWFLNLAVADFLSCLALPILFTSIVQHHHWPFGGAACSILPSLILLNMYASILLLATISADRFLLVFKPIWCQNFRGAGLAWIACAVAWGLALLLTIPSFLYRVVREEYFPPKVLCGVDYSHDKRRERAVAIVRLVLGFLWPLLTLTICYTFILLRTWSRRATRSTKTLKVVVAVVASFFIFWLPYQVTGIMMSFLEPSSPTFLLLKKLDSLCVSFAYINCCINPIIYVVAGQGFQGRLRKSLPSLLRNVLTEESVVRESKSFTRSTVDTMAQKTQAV

[3] = biological target: T8, Corticotropin-releasing factor CRF1 (Homo sapiens, UniProt P34998); assay: functional assay, cAMP HTRF, CHO cells (Table S2); assay type: cell-based
T8 construct: expressed in transfected cells; host or cells: CHO cells
T8 sequence (P34998 24-415): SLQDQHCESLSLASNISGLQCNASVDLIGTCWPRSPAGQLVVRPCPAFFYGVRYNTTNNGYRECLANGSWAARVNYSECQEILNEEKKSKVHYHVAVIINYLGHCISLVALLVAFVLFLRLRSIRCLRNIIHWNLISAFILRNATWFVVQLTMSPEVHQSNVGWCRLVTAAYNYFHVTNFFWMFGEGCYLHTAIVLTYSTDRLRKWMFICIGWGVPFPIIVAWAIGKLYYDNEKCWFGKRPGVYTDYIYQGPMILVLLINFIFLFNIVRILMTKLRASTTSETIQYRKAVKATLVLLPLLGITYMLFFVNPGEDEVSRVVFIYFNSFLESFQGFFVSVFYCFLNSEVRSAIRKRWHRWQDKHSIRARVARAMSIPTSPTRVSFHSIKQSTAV

Neurokinin NK1 = Neurokinin NK1 (Homo sapiens, UniProt P25103); assay type: cell-based
Chain of Neurokinin NK1 (P25103 whole entry): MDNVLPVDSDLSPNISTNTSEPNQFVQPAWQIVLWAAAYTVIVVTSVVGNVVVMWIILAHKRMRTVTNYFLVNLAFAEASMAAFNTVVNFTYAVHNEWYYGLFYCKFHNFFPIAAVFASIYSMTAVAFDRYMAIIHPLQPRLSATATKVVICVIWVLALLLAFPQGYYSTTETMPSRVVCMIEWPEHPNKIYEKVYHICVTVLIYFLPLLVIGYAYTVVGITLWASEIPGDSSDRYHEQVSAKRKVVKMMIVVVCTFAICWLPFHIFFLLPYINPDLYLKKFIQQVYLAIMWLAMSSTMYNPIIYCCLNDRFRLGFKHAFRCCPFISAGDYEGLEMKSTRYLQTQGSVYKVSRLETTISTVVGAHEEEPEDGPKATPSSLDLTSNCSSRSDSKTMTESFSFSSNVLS

in vitro = settings: human, Caco-2
Adrenergic β3 = Adrenergic β3 (Homo sapiens, UniProt P13945); assay: radioligand binding (Table S2); settings: read-out: % Inhibition @ 10 µM
Chain of Adrenergic β3 (P13945 whole entry): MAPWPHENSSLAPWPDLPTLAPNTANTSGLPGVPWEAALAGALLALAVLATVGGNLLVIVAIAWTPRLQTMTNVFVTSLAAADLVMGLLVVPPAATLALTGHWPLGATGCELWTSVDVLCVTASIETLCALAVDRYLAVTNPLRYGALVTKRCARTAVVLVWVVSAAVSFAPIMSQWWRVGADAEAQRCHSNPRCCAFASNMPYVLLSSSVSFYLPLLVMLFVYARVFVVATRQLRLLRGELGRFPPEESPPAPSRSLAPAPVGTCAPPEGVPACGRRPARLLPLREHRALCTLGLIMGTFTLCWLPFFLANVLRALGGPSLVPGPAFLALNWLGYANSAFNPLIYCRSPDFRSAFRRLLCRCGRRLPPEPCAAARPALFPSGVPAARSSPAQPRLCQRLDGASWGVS

Cannabinoid CB1 = Cannabinoid CB1 (Homo sapiens, UniProt P21554); assay: radioligand binding (Table S2); settings: read-out: % Inhibition @ 10 µM
Chain of Cannabinoid CB1 (P21554 whole entry): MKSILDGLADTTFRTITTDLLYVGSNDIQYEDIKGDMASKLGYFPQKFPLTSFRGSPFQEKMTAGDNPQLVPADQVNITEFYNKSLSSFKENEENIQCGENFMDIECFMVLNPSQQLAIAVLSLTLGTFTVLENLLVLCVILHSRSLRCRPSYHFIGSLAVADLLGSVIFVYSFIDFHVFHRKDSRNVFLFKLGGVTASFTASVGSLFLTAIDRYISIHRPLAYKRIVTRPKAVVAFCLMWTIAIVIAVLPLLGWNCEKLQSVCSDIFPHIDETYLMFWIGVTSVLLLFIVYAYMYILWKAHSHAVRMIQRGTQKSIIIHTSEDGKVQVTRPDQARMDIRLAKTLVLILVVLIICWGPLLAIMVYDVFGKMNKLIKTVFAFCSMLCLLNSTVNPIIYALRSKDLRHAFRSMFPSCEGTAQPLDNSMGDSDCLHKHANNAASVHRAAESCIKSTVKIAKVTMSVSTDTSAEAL

Glucagon = Glucagon (Homo sapiens, UniProt P47871); assay: radioligand binding (Table S2); settings: read-out: % Inhibition @ 10 µM
Chain of Glucagon (P47871 26-477): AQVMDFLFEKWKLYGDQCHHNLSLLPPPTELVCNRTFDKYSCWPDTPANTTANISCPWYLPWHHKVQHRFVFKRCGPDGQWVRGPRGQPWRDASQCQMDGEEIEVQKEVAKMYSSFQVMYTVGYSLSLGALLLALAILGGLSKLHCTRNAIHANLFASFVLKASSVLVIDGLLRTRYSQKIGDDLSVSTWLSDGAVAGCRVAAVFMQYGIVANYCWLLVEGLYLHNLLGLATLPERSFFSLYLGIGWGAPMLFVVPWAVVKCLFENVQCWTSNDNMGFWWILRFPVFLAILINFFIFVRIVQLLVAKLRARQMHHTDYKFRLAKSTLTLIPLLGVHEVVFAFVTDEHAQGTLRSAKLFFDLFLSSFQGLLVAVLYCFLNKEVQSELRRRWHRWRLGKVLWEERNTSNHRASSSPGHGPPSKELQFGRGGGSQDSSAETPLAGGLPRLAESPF

T1 sequence (P29274 whole entry): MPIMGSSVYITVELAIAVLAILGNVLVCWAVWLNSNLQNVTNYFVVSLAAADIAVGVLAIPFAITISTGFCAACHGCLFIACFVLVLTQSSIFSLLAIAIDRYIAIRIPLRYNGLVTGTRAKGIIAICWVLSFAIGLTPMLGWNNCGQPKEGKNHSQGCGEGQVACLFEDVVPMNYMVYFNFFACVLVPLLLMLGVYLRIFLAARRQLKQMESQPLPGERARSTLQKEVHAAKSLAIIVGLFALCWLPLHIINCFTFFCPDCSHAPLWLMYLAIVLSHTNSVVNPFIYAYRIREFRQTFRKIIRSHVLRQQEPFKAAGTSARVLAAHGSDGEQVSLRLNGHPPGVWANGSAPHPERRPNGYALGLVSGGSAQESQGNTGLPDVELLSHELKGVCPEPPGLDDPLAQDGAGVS

Cc1cc(-c2ncnn2C)c2cccc(OCc3c(Cl)cc(F)cc3[C@H](C)NC(=O)COC(F)F)c2n1 [Compound 3, (S)-N-(1-(3-chloro-5-fluoro-2-((2-methyl-4-(1-methyl-1H-1,2,4-triazol-5-yl)quinolin-8-yloxy)methyl)phenyl)ethyl)-2-(difluoromethoxy)acetamide]
inhibition at 10 µM (Adenosine A2A): 9.8%
inhibition at 10 µM (Dopamine D1): 6.9%
inhibition at 10 µM (Endothelin ETA): -2.1%
inhibition at 10 µM (Melatonin MT2 (ML1B)): 4.8%
inhibition at 10 µM [1]: -33.6%
inhibition at 10 µM [2]: 0.8%
inhibition at 10 µM (C5a; HEK293, read-out: % inhibition of reference agonist response @ 10 µM (antagonist effect), hC5a (10 nM)): -0.2%
% of reference agonist response @ 10 µM (agonist effect) (C5a; reference hC5a (100 nM)): -18.1%
% of reference agonist response @ 10 µM (agonist effect) ([3]; 10 µM, reference ovine CRF (1 µM)): -2.7%
inhibition at 10 µM ([3]; CHO, read-out: % inhibition of reference agonist response @ 10 µM (antagonist effect), 10 µM, Ovine CRF (10 nM)): 55.7%
IC50 ([3]; Ovine CRF (10 nM), read-out: IC50 (µM), functional antagonism): 10 µM
Kb ([3]; Ovine CRF (10 nM), read-out: Kb (µM), functional antagonism): 3.6 µM
% of reference agonist response @ 10 µM (agonist effect) (Neurokinin NK1; 10 µM, reference [Sar9,Met(O2)11]-SP (30 nM)): -5.2%
IC50 (Neurokinin NK1; [Sar9,Met(O2)11]-SP (1 nM), read-out: IC50 (µM), functional antagonism): 17 µM
Kb (Neurokinin NK1; [Sar9,Met(O2)11]-SP (1 nM), read-out: Kb (µM), functional antagonism): 2.4 µM
Papp A→B at 60 min, 10 µM (in vitro): 173 nm/s
Papp B→A at 60 min, 10 µM (in vitro): 176 nm/s
inhibition at 10 µM (Adrenergic β3): 8.1%
inhibition at 10 µM (Cannabinoid CB1): -3%
inhibition at 10 µM (Glucagon): -0.6%

Reference: article PMC7316994, “In Vitro Pharmacological Profile of a New Small Molecule Bradykinin B2 Receptor Antagonist” (Frontiers in Pharmacology, 2020)
